# “Also recorded” adds a separate entry of the source.
# Key:
# [1] = test system: guinea pig penis; experiment: Topical application of nitrates to the penis of guinea pigs (change in penile volume); format: in vivo, male outbred Hartley guinea pigs; settings: for AUC / AUC, % of 1,5-PDN / Peak Effect (% change) / Peak Effect, % of 1,5-PDN / Time of Peak Effect: guinea pig, in vivo
# Source text: Sixteen (16) male outbred Hartley guinea pigs were weighed and placed into treatment groups as follows:
# The animals were placed in dorsal recumbency and held in place by restraints. The penis was extruded from the prepuce. Care was taken to not manipulate the penis. Length and diameter measurements were made using digital calipers. The length measurement was taken from the prepuce to the tip of the glans when the penis was extended. The diameter was taken 0.5 cm proximally from the tip of the glans.
# The appropriate amount of test material was applied with a Wiretrol™ pipette to the base of the exposed penis. When application was complete, a timer was started. Measurements were taken at 0, 1, 2, 5, 10 and 15 minutes after application or until detumescence was observed.
# The same procedure was followed to topically apply a series of various other nitrate and dinitrate compounds (in neat form) to the penis of guinea pigs. A summary of the activity of this series of nitrate compounds is shown in Table 2, with the AUC and peak effect values for each compound compared to 1,5-PDN.
# The same test procedure was followed as in Example 3, but applying a 10% solution of NTG to the penis in varying dosage amounts.
# Twelve (12) male Hartley guinea pigs were placed into treatment groups as follows: […]
# [2] = test system: rat aortic rings; experiment: Vascular reactivity: relaxation of rat aortic rings precontracted with phenylephrine; format: cell-based, Sprague-Dawley rats; settings: FIG. 11, rat aortic strips
# Source text: Aortic rings (2-3 mm wide) from Sprague-Dawley rats were isolated and placed in a tissue bath. The vessels were precontracted with small amounts of phenylephrine. A transducer connected to a recorder was used to assess changes in tension. As noted in FIG. 10, there was no difference in vascular relaxation, either in potency or efficacy, between 1,5-PDN and 1,5-pentane dinitrite.
# [3] = test system: corpus cavernosum; experiment: Intracavernosal injection in anesthetized rats (cavernosal and arterial blood pressure)
# [4] = test system: penile smooth muscle; settings: cited from earlier work
# [5] = Intravenous injection of NTG vs. 1,5-pentane dinitrate in conscious rats (mean arterial blood pressure); format: in vivo, rat; settings: 30 μg
# Method: Rats (n=3) with indwelling catheters in the femoral artery for blood pressure measurements and vein for drug administration were given 1 dose of NTG (30 μg) and 6 doses of 1,5-PDN (30 μg-2000 μg) or vehicle (ethanol) in the conscious state. Changes in mean arterial blood pressure (diastolic blood pressure+1/3 (systolic-diastolic blood pressure)) were assessed after each dose of nitrate was given. About 0.5 hr to 1 hr separated the administration of each drug and dose.
# [6] = test system: penis; settings: cited from earlier work
SMILES,AUC [1],"AUC, % of 1,5-PDN [1]",Peak Effect (% change) [1],"Peak Effect, % of 1,5-PDN [1]",Time of Peak Effect [1],other results
CCCC(C)O[N+](=O)[O-] (centres unmarked) [2-Pentane nitrate],323,73%,36.0 % change,93%,5 min,
CC(C)CCO[N+](=O)[O-] [Isoamyl nitrate],309,70%,40.3 % change,104%,2 min,
CC(C)=CCO[N+](=O)[O-] [2-Methyl-2-butene-4-nitrate],305,69%,32.6 % change,84%,5 min,
O=[N+]([O-])OC1CCCC1 [Cyclopentyl nitrate],380,86%,31.8 % change,,10 min,
CC(C)CO[N+](=O)[O-] [Isobutyl nitrate],367,,38.1 % change,,2 min,
"O=[N+]([O-])OCC(CO[N+](=O)[O-])O[N+](=O)[O-] [NTG, nitroglycerin]",,,,,,"vascular relaxation: NTG vs 1,5-PDN [2]: no appreciable difference in the vascular relaxation; change in intracavernosal pressure ([3]; anesthetized rats, FIGS. 6-8): relatively small, dose-dependent increases in intracavernosal pressure; effect on systemic arterial blood pressure ([3]; anesthetized rats, FIGS. 6-8): almost equivalent systemic (""downstream"") reductions in arterial blood pressure; systemic reduction in arterial blood pressure ([3]; at the highest dose used): over 30 mmHg; headache, systemic blood pressure ([4]; in vivo): headaches were a common occurrence; also recorded: decrease in systemic blood pressure and development of headache; relaxation of penile smooth muscle and vascular tissue ([4]; in vivo): causes relaxation of penile smooth muscle and vascular tissue, including cavernosal tissue; response compared with papaverine or placebo ([4]; only one trial): better than papaverine, another vasodilator, or placebo; decrease in arterial pressure [5]: ~25%; patients with erections sufficient for vaginal penetration ([6]; at home): 30 % of patients; patients with some response ([6]; in vivo): 71 % of patients; effect on penile volume ([1]; topical, FIGS. 1-3, 1,5-PDN vs saline, 10% NTG solution vs 1,5-PDN): minimal effect on penis volume as compared to 1,5-PDN"
C=CCCCO[N+](=O)[O-] [1-Pentene-5-nitrate],309,70%,35.4 % change,91%,2 min,

# Source: US6056966A, “Method and compositions for treating impotence” (Baker Norton Pharmaceuticals, Inc., priority 1998, dated 2000)
